Measurements taken from ChEMBL document CHEMBL3286186, “Design of α7 nicotinic acetylcholine receptor ligands in quinuclidine, tropane and quinazoline series. Chemistry, molecular modeling, radiochemistry, in vitro and in rats evaluations of a [(18)F] quinuclidine derivative” (Eur J Med Chem, 2014).

Tests used:
[1] = target: Neuronal acetylcholine receptor subunit alpha-7 (Rattus norvegicus, UniProt Q05941); assay: Displacement of [125I]-alpha-bungarotoxin from alpha7 nicotinic acetylcholine receptor in Wistar rat frontal cortex by gamma counting; type: tissue-based
Brain = assay: Biodistribution in Wistar rat brain at 5 +/- 2 MBq, iv after 60 mins by gamma counting; type: ADME, organism-based; conditions: in vivo, 1 h
Cortex = assay: Biodistribution in Wistar rat cortex at 5 +/- 2 MBq, iv after 60 mins by gamma counting in presence of alpha7 nAChR antagonist methyllycaconitine; type: organism-based; conditions: in vivo, 1 h
Striatum = assay: Biodistribution in Wistar rat striatum at 5 +/- 2 MBq, iv after 60 mins by gamma counting in presence of alpha7 nAChR antagonist methyllycaconitine; type: organism-based; conditions: in vivo, 1 h
Hippocampus = assay: Biodistribution in Wistar rat hippocampus at 5 +/- 2 MBq, iv after 60 mins by gamma counting in presence of alpha7 nAChR antagonist methyllycaconitine; type: organism-based; conditions: in vivo, 1 h
Hypothalamus = assay: Biodistribution in Wistar rat hypothalamus at 5 +/- 2 MBq, iv after 60 mins by gamma counting in presence of alpha7 nAChR antagonist methyllycaconitine; type: organism-based; conditions: in vivo, 1 h
Midbrain = assay: Biodistribution in Wistar rat midbrain at 5 +/- 2 MBq, iv after 60 mins by gamma counting in presence of alpha7 nAChR antagonist methyllycaconitine; type: organism-based, Brain; conditions: in vivo, 1 h
Cerebellum = assay: Biodistribution in Wistar rat cerebellum at 5 +/- 2 MBq, iv after 60 mins by gamma counting in presence of alpha7 nAChR antagonist methyllycaconitine; type: organism-based; conditions: in vivo, 1 h

Chain of Neuronal acetylcholine receptor subunit alpha-7 (Q05941 whole entry): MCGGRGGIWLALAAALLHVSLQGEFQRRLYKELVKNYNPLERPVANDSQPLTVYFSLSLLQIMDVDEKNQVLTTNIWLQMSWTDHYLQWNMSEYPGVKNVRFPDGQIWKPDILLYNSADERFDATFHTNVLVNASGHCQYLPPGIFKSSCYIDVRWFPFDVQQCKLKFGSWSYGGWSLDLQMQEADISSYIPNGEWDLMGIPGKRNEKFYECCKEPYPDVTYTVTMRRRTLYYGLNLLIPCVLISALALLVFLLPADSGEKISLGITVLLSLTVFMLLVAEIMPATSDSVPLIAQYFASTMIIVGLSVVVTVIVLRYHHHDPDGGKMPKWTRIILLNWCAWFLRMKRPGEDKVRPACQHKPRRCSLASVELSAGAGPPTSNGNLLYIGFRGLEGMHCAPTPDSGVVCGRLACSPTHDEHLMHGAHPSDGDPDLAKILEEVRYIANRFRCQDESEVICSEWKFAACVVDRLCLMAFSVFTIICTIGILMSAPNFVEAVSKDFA

Row | Compound | Ki [1] [nM] | also measured
1 | CN1[C@@H]2CC[C@H]1C[C@@H](NC(=O)c1ccc(Cl)cc1)C2 | > 1000 | 
2 | CN1[C@@H]2CC[C@H]1C[C@@H](NC(=O)c1cccs1)C2 | > 1000 | 
3 | CN1[C@@H]2CC[C@H]1C[C@@H](NC(=O)c1ccc(Br)s1)C2 | 78 | 
4 | CN1[C@@H]2CC[C@H]1C[C@@H](NC(=O)c1ccc3sccc3c1)C2 | 108 | 
5 | CN1[C@@H]2CC[C@H]1C[C@@H](NC(=O)c1ccc3occc3c1)C2 | 133 | 
6 | CN1[C@@H]2CC[C@H]1C[C@@H](NC(=O)c1ccc(-c3cccs3)s1)C2 | 12 | 
7 | CN1[C@@H]2CC[C@H]1C[C@@H](NC(=O)c1ccc(-c3ccco3)s1)C2 | 14 | 
8 | O=C(N[C@H]1CN2CCC1CC2)c1ccc([18F])cc1 |  | Drug uptake (Brain): Active; Drug uptake (Cortex): Not Active; Drug uptake (Striatum): Not Active; Drug uptake (Hippocampus): Not Active; Drug uptake (Hypothalamus): Not Active; Drug uptake (Midbrain): Not Active; Drug uptake (Cerebellum): Not Active
